“And” between values parts separate entries of the source, which are not always exact repeats. Identical values can stand only once. The source made the active and inactive calls.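 Rule for the calls: active = compounds giving half or more protection of infected cells from virus-caused growth loss, again on retest; inactive = the rest.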
Test system: CEM cells HIV-1 protection, formazan growth assay
Assay: NCI AIDS Antiviral Assay
Settings: for IC50: measured here: growth of uninfected CEM cells
In short: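 CEM (human) cells, HIV-1 infected vs uninfected, 5-point dosing, formazan growth read-out. Retest threshold 50% protection.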

Compound | EC50 [µM] | IC50 | outcome
O=C(CC(=O)c1cccnc1)NC(=O)c1ccccc1 | > 355 | > 355 µM | 
CCOC1C2c3cc(OC)c(OC)cc3CC(C#N)(c3ccccc32)N1C(=O)c1ccccc1 (stereo unspecified) |  |  | inactive
COC(=O)[C@@H]1CN(C(=O)c2ccccc2)C(=O)N1 | > 200 | > 200 µM | 
N#C/C(=C/n1c(=S)sc2ccccc21)c1nc2ccccc2s1 | > 200 | 102 µM | 
Cc1ccc(S(=O)(=O)ON/N=C2/C3OC3[C@@H]3CCCC[C@H]23)cc1 (stereo partly specified) | > 389 | 195 µM | 
Cc1cn(C2CC(N=[N+]=[N-])C(COC(=O)CCCCCCCCCCN=[N+]=[N-])O2)c(=O)[nH]c1=O (stereo unspecified) | 0.0389 | 28.8 µM | 
O=C(/C=C/c1ccccc1)CC1OC(=O)c2ccccc21 (stereo unspecified) | > 245 | 129 µM | 
O=c1n(-c2ccccc2)c(=O)n2n1C1C3C4C5C3C2C5(F)C41 (stereo unspecified) | > 200 | > 200 µM | 
COc1cc(/C=C2/CCS(=O)(=O)c3ccc(C)cc3C2=O)cc(OC)c1OC | > 200 | 3.72 µM | 
CC[C@]12CN3CCc4c([nH]c5ccccc45)[C@@](C(=O)OC)(c4cc5c(cc4OC)N(C)[C@H]4[C@@](O)(C(=O)OC)[C@H](OC(C)=O)[C@]6(CC)C=CCN7CC[C@]54[C@@H]76)CC(C3)[C@H]1O2 (stereo partly specified) | > 2 | 0.141 µM and 0.0447 µM | 
O=C(O)c1ccccc1-n1nc(C(=O)O)c(N=Nc2ccc(/C=C/c3ccc(N=Nc4c(C(=O)O)nn(-c5ccccc5C(=O)O)c4O)cc3S(=O)(=O)O)c(S(=O)(=O)O)c2)c1O | > 0.977 | > 0.977 µM | 
CCc1cccc(CC)c1NC(=O)C1=C(C)NC(C)=C(C(=O)Nc2c(CC)cccc2CC)C1c1ccc([N+](=O)[O-])cc1 | > 44.7 | > 44.7 µM | 
COC(=O)/C=C(C)/C=C/C1OC(C)OCC1O (stereo unspecified) | > 1020 | > 1020 µM | 
CCCCCCCCCCCCOCCOCCOCCOCCOCCOCC(=O)NC(Cc1ccccc1)C(=O)Oc1ccc([N+](=O)[O-])cc1 (stereo unspecified) | > 200 | 17.8 µM | 
Cc1ccc2nc(-c3ccccc3)c(N=O)n2c1 | > 200 | 170 µM | 
COc1ccc(/C=C/C(=O)N[C@@H]2CCN3CCCC23)cc1 (stereo partly specified) |  |  | inactive
Nc1[nH]c(=S)nc2snnc12 | > 200 | > 200 µM | 
N#Cc1cccc(C=C2C(=O)c3ccccc3C2=O)c1 | > 36.3 | > 36.3 µM | 
Cn1c2ccc(Cl)cc2c2oc(-c3nn[nH]n3)cc(=O)c21 | > 200 | 174 µM | 
O=c1c2ccccc2ncn1O | > 200 | > 200 µM | 
Nc1nc(C=O)nc2c1ncn2C1OC(CO)C(O)C1O (stereo unspecified) | > 200 | 30.9 µM | 
CCc1cc2c(oc3c4ccccc4ccc23)c(=O)[nH]1 | > 200 | > 200 µM | 

Compound | EC50 [µM] | IC50 | outcome
Cc1cc(C)c(C2CC(O)C(CO)O2)cc1C (stereo unspecified) | > 200 | > 200 µM | 
NC(N)=N/N=C/c1c(-c2ccc(Cl)cc2)nc2n1CCS2 | > 200 | 11.2 µM | 
CN(C)c1ccc(/C=C(\C#N)c2ccc([N+](=O)[O-])cc2)c(Cl)c1 | > 100 | 75.9 µM | 
CC1C2CC(CC2O)C1(C)C (stereo unspecified) | > 1620 | > 1620 µM | 
Fc1ccccc1-c1nn2c(C34CC5CC(CC(C5)C3)C4)nnc2s1 | > 200 | > 200 µM | 
CC(C)c1c(Cc2ccccc2)n(COCCC[Se]c2ccccc2)c(=O)[nH]c1=O | 0.0501 | 1.38 µM | 
CC1(C(=O)O)CC(C(=O)O)=Nn2c3ccccc3c3cccc1c32 (stereo unspecified) | > 324 | > 324 µM | 
COc1ccc(/C(=N/O)c2ccccc2-c2nc3ccccc3c(=O)n2Nc2ccc([N+](=O)[O-])cc2[N+](=O)[O-])cc1C | > 200 | 43.7 µM | 
CC(=O)OCc1cc(-c2nc3ccccc3[nH]c2=O)nn1-c1ccc(Cl)cc1 | > 200 | > 200 µM | 
CCOC(=O)c1sc(SC)nc1NC(=O)c1ccccc1 | > 200 | > 200 µM | 
O=C(C=Nc1ccccc1C(=O)[O-])c1ccco1.O=C(C=Nc1ccccc1C(=O)[O-])c1ccco1.[Zn+2] | > 1.38 | > 1.38 µM | 
CC(C)(C)c1ccc(-c2nc3ccccc3c(=O)o2)cc1 | > 200 | 38.9 µM | 
CN(C)CCNC(=O)Cn1cc([N+](=O)[O-])c(=O)c2ccccc21 | > 200 | > 200 µM | 
CN(C)c1ccc(-c2c(C#N)c(O)n(NS(=O)(=O)c3ccccc3)c(=O)c2C#N)cc1 | > 200 | > 200 µM | 
COc1ccc2[nH]c(=O)c(C(C)=O)c(O)c2c1 | > 200 | > 200 µM | 
O=c1[nH]n2c(=O)cc[nH]c2c1-c1nnns1 | > 30.9 | > 30.9 µM | 
CCOC1=NC(O)c2cccn2-c2sccc21 (stereo unspecified) | > 200 | 126 µM | 
Cc1cc(N(CCC#N)CCC#N)ccc1/C(N=Nc1ccc(C(=O)O)cc1)=N\NC(=O)c1cc(Cl)ccc1O | > 200 | 112 µM | 
CCOC(=O)c1sc2c(c1OC(=O)c1ccco1)c(=O)n(-c1ccccc1)c(=S)n2-c1ccccc1 | > 200 | 8.32 µM | 
CCCc1cc(=O)oc2c3c(c4c(c12)OC(C)(C)CC4)OC(C)[C@H](C)[C@@H]3O (stereo partly specified) | 14.8 | 15.1 µM | 
COC1CCC(CO)OO1 (stereo unspecified) | > 200 | 3.09 µM | 
CCNC12CCC(C1)C(C)(C)C2=O (stereo unspecified) | > 200 | > 200 µM | 

Compound | EC50 [µM] | IC50 | outcome
O=C1CCCC(=O)C1=C(O)CCCCCCCCCCc1ccccc1 | > 38 | > 38 µM | 
Cc1cccc(-c2nc(=S)[nH][nH]2)c1 | > 955 | 417 µM | 
COc1c(OC)c(OC)c2c(c1OC)OC(c1ccc(O)cc1)CC2=O (stereo unspecified) | > 200 | 28.8 µM | 
COc1ccc(C(C#N)NC23CC4CC(CC(C4)C2)C3)cc1 (stereo unspecified) |  |  | inactive
COC(=O)N1C2c3ccccc3C(c3ccccc32)N1C(=O)OC | > 200 | > 200 µM | 
N#Cc1cc2c(n(C3OC(CO)C(O)C(O)C3O)c1=S)CCCC2 (stereo unspecified) | > 200 | > 200 µM | 
Cn1c(=O)cc(NCc2ccc(Cl)cc2)[nH]c1=O | > 200 | 195 µM | 
CCOP(=O)(/C=C/c1cc(OC)ccc1OC)OCC | > 832 | 355 µM and 158 µM | 
CCOC(=O)C1=C(C)N(C2OC(COC(=O)c3ccccc3)C(OC(=O)c3ccccc3)C2OC(=O)c2ccccc2)C(=S)NC1c1ccccc1 (stereo unspecified) | > 50.1 | > 50.1 µM | 
CCOC(=O)C1(C(=O)OCC)C[C@@H](C)[C@@H](O)C1 | > 200 | > 200 µM | 
CC(=O)Nc1ncc2ccccc2c1-c1ccc(NC(=O)CN(CCO)CCO)cc1 | > 200 | > 200 µM | 
OCC(O)C(OC1OC(CO)C(O)C(O)C1O)C(O)C(/C=N\Nc1ccccc1)=N/Nc1ccccc1 (stereo unspecified) | > 200 | 4.9 µM | 
CC1=Nn2c(nc3sc4c(c3c2=O)CCCC4)SC1 |  |  | inactive
CC(=O)NNc1nc(C)c(C(=O)NNC(=O)C(=O)Nc2nc3ccc([N+](=O)[O-])cc3s2)s1 | > 141 | 33.1 µM | 
Cn1cnc([N+](=O)[O-])c1Sc1ccccn1 | > 1050 | 42.7 µM | 
O=C(O)CSc1nnc(COc2ccccc2)n1-c1ccccc1 | > 741 | 407 µM | 
COC(=O)C1CC(F)(F)[C@H]1n1cnc2c(N)ncnc21 (stereo partly specified) | > 240 | > 240 µM | 
COc1ccc(CCCCl)c(C2=NCCc3ccccc32)c1 | > 200 | 7.08 µM | 
Cn1c(=O)cc(C=Nc2ccc(-c3ccccc3)cc2)c2ccccc21 | > 100 | 2 µM | 
S=C1NC2=C(CSC/C2=C\c2ccc(Cl)cc2)C(c2ccc(Cl)cc2)N1 (stereo unspecified) | > 200 | 15.8 µM | 
CCCC(=O)[O-].N.N.N.N.N.[Co+3].[O-][Cl+3]([O-])([O-])[O-] |  |  | inactive
O=c1ccn(C2CC(CO)C(CO)C2)c(=O)[nH]1 (stereo unspecified) | > 105 | > 105 µM | 

Compound | EC50 [µM] | IC50 | outcome
COC12C=CC(CC1)C1=C2C(=O)c2nc(C)c(C)nc2C1=O (stereo unspecified) | > 63.1 | 39.8 µM | 
COC(=O)c1nc(NN)[nH]c(=O)c1CCCCCc1c(C(=O)OC)[nH]c(NN)cc1=O | > 6.31 | > 6.31 µM | 
COCCOCCOCCOCCOCCOCCOCCOCCOCCOCCOCCOCCOCCOCCOCCOCCOCC(=O)N(CCn1ccc(NC(c2ccccc2)(c2ccccc2)c2ccccc2)nc1=O)CCn1cnc2nc(NC(=O)c3ccccc3)[nH]c(=O)c21 | > 170 | 85.1 µM | 
C=CC1CN2CCC1C/C2=N\O (stereo unspecified) |  |  | inactive
N#C/C(=C\c1cccc(Cl)c1Cl)c1ccccc1 | > 24.5 | > 24.5 µM | 
CCCCn1c2c(c3ccccc3c1=O)C(=O)c1ccccc1-2 | > 69.2 | 33.9 µM | 
Clc1cnc2cccc3c2c1C=CN3 | > 129 | 52.5 µM | 
COC1C=CC23c4cc5c(cc4C(O)OC2CN(C)C3C1)OCO5 (stereo unspecified) | > 200 | 0.891 µM | 
COc1ccc2nc3c([N+](=O)[O-])ccc(NCCCN(C)C)c3c(NCCCN(C)C)c2c1 | > 200 | 0.229 µM | 
Cc1ccc(C)c(NC(=O)C(=O)C(C(=O)c2ccc3ccccc3c2)C2OC(=O)c3ccccc32)c1 (stereo unspecified) | > 53.7 | 23.4 µM | 
Cc1ccc(/S(Cc2ccccc2)=N\S(=O)(=O)c2ccc(C)cc2)cc1 (stereo unspecified) | > 67.6 | > 67.6 µM | 
C[C@@H]1N[C@@H](C)Cc2c(-c3ccc(O)c4ccccc34)c(O)cc(O)c21 | > 200 | 30.9 µM | 
S=c1[nH]ncc(SCc2ccccc2)c1SCc1ccccc1 | > 200 | 13.2 µM | 
CCOC(=O)/C(=C/c1ccc(OC)c(OC)c1)P(=O)(OCC)OCC | > 676 | 85.1 µM | 
COc1ccc(-c2csc(=Nc3ccccc3)n2CCCN(C)C)cc1 | > 200 | 16.2 µM | 
Nc1c(Br)cc(/C=C2\C=Cc3ccccc32)cc1Br | > 10 | > 10 µM | 
CCOC(=O)/C(=C\c1cccc(OC)c1)P(=O)(OCC)OCC | > 525 | 11.5 µM | 
CCn1ccnc1.CCn1ccnc1.O=C([O-])CC(O)C(=O)[O-].[Pt+2] (stereo unspecified) | > 200 | > 200 µM | 
COc1cc(Cl)cc(=O)c(O)c1OC | > 437 | 20.9 µM | 
Cc1nc2ccccc2c(=O)n1NC(=S)Nc1ccccc1 | > 115 | 107 µM | 

From PubChem BioAssay AID179 (DTP/NCI, 2004)
